The source of these data is PubChem BioAssay (NCI).

Some test systems named below: OVCAR-5 ovarian; LOX IMVI melanoma; SK-MEL-28 melanoma; COLO 205 colon; UO-31 renal; MOLT-4 leukemia; K-562 leukemia; SK-MEL-2 melanoma; NCI/ADR-RES ovarian; SNB-75 CNS; TK-10 renal; HS 578T breast; MDA-MB-435; MDA-MB-231 breast.
What all share (experiment): NCI tumour cell line growth inhibition, 48 h

Where “and” joins values, the source holds several entries; their conditions need not be identical. Equal values may be shown once.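 Where inhibition never reached the appropriate level, the endpoint shown equals the highest concentration tested. Otherwise, values were interpolated linearly from a five-concentration, 48-hour dose response in 96-well plates. Abbreviation: GI50, concentration required for 50% inhibition of growth. TGI denotes the concentration required for complete inhibition of growth.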 Where a SMILES comes first, the peptide text is derived from it. [ ]: non-standard residue; d: D form. The star is where a group is joined. ξ: configuration not given here. NMeF = CN[CH](Cc1ccccc1)C(=O)O; ξNMeF = CNC(Cc1ccccc1)C(=O)O; NMeV = CN[CH](C(=O)O)C(C)C; Boc = CC(C)(C)OC(=O)*; OBn = c1ccc(CO*)cc1

Regarding `Cc1cc(O)c2c(c1)C(=O)c1c(c(O)cc(O)c1-c1c(O)cc(O)c3c1C(=O)c1cc(C)cc(O)c1C3=O)C2=O`, the TGI in the test with OVCAR-5 ovarian is 85 µM; in the test with LOX IMVI melanoma, 50.2 µM; with SK-MEL-28 melanoma it was 70.8 µM; in the test with COLO 205 colon, greater than 71.7 µM; with UO-31 renal it was 15.8 µM; in the test with MOLT-4 leukemia it was 50.8 µM. In addition, the TGI is 55.6 µM in the test with K-562 leukemia, 40.7 µM in the test with SK-MEL-2 melanoma, 152 µM in the test with NCI/ADR-RES ovarian and 66.1 µM with SNB-75 CNS.

Turning to `CCN(CC)C(=O)CCn1cc(F)c(=O)[nH]c1=O`, the TGI with OVCAR-5 ovarian, in the test with LOX IMVI melanoma, in the test on SK-MEL-28 melanoma, with COLO 205 colon, in the test with UO-31 renal and in the test with MOLT-4 leukemia was greater than 100 µM throughout. Besides, the TGI in the test on K-562 leukemia, in the test on SK-MEL-2 melanoma, with SNB-75 CNS and with TK-10 renal was greater than 100 µM in each case.

Regarding `CC(C)C(NC(=O)OC(C)(C)C)C(=O)N(C)C(Cc1ccccc1)C(=O)N(C)C(C(=O)OCc1ccccc1)C(C)C` (stereo not drawn) (Boc-Val-[NMeF]-[NMeV]-OBn; configuration not given here), the GI50 with LOX IMVI melanoma is 16.3 µM and 62.9 µM; with MOLT-4 leukemia it was 5.92 µM and 14.8 µM; with K-562 leukemia, 12.1 µM and 51.4 µM. The TGI was 35.7 µM and > 100 µM in the test with LOX IMVI melanoma; greater than 100 µM in the test with SK-MEL-28 melanoma; greater than 100 µM in the test on COLO 205 colon; greater than 100 µM in the test with UO-31 renal; 39.6 µM and 44 µM with MOLT-4 leukemia; 95.6 µM and > 100 µM in the test with K-562 leukemia. Moreover, the TGI in the test with TK-10 renal is greater than 100 µM.

Regarding `C=C1CC[C@@H]2C13[C@@H]1[C@H](CC(=O)[C@@]23C)C1(C)C` (some centres not stated), the TGI in the test on OVCAR-5 ovarian, in the test on LOX IMVI melanoma, with SK-MEL-28 melanoma, in the test on COLO 205 colon, in the test on UO-31 renal and in the test with MOLT-4 leukemia was greater than 100 µM each time. The TGI in the test on K-562 leukemia, in the test with SK-MEL-2 melanoma, in the test with HS 578T breast, with MDA-MB-435, in the test with NCI/ADR-RES ovarian and in the test with TK-10 renal was greater than 100 µM each time.

In the case of `C/C(O)=C(\C=N\C(=S)N=Nc1c(O)[nH]c2ccccc12)C(=O)Nc1ccccc1C`, the TGI in the test with OVCAR-5 ovarian, with LOX IMVI melanoma, in the test on SK-MEL-28 melanoma, in the test on MDA-MB-231 breast, in the test with COLO 205 colon and in the test with UO-31 renal was greater than 100 µM in each case. Also, the TGI with MOLT-4 leukemia, in the test with SK-MEL-2 melanoma, with MDA-MB-435, in the test with NCI/ADR-RES ovarian, with SNB-75 CNS and in the test with TK-10 renal was greater than 100 µM throughout.

On to `COc1cccc(NC(=O)CSc2nnc(Cc3ccccc3)o2)c1`, for which the TGI with OVCAR-5 ovarian, with LOX IMVI melanoma, in the test on SK-MEL-28 melanoma, with COLO 205 colon, in the test on UO-31 renal and in the test on MOLT-4 leukemia was greater than 100 µM throughout. In addition, the TGI with K-562 leukemia, in the test on SK-MEL-2 melanoma, in the test with SNB-75 CNS and in the test on TK-10 renal was greater than 100 µM throughout.

`O=C(c1cscc1CCc1ccccc1)c1cscc1CCc1ccccc1`: the TGI in the test on OVCAR-5 ovarian, in the test on LOX IMVI melanoma, in the test with SK-MEL-28 melanoma, in the test on MDA-MB-231 breast, with COLO 205 colon and in the test with UO-31 renal was greater than 100 µM in each case. Also, the TGI in the test with MOLT-4 leukemia, in the test with K-562 leukemia, in the test on SK-MEL-2 melanoma, with MDA-MB-435, with NCI/ADR-RES ovarian and in the test on SNB-75 CNS was greater than 100 µM each time. Besides, in the test with TK-10 renal, the TGI is greater than 100 µM.

With `CC(C)[C@@H](C(=O)N(C)[C@H](C(=O)N1CCC[C@H]1C(=O)OCc1ccccc1)C(C)C)N(C)C(=O)C(Cc1ccccc1)N(C)C(=O)[C@H](NC(=O)OC(C)(C)C)C(C)C` (some centres not stated) (Boc-[dV][ξNMeF][NMeV][NMeV]P-OBn), the TGI was greater than 31.6 µM in the test with OVCAR-5 ovarian; greater than 31.6 µM in the test with LOX IMVI melanoma; greater than 31.6 µM in the test on SK-MEL-28 melanoma; greater than 100 µM in the test on COLO 205 colon; greater than 31.6 µM in the test on UO-31 renal; greater than 31.6 µM in the test on MOLT-4 leukemia. Besides, the TGI in the test with K-562 leukemia is greater than 31.6 µM; in the test on SK-MEL-2 melanoma, greater than 31.6 µM; in the test with SNB-75 CNS, greater than 100 µM; in the test with TK-10 renal it was greater than 31.6 µM.

For `C=C1CC(OC)(C(OC)C(=O)N[C@H]2OCO[C@H]3C2O[C@H](C[C@@H](COC)OC)C(C)(C)C3OC)O[C@H](C)[C@@H]1C` (some centres not stated), the TGI was 4 µM in the test on OVCAR-5 ovarian; greater than 47 µM in the test on LOX IMVI melanoma; 3.45 µM in the test on SK-MEL-28 melanoma; 4.72 µM with COLO 205 colon; 5.71 µM in the test on UO-31 renal; 1.88 µM with MOLT-4 leukemia. Besides, the TGI is 3.38 µM with K-562 leukemia, 14.9 µM with SK-MEL-2 melanoma, greater than 47 µM with NCI/ADR-RES ovarian and 9.99 µM with SNB-75 CNS.

For `Cc1ccc(Nc2cccc3c2C(=O)c2cccc(Nc4ccc(C)cc4S(=O)(=O)O)c2C3=O)c(S(=O)(=O)O)c1`, the TGI with SK-MEL-28 melanoma, with COLO 205 colon, with UO-31 renal, in the test on MOLT-4 leukemia, in the test with K-562 leukemia and with SK-MEL-2 melanoma was greater than 100 µM each time. Moreover, the TGI in the test with SNB-75 CNS and in the test on TK-10 renal was greater than 100 µM in each case.

As for `Clc1cccc(-c2nc3cccc4c3n2Cc2ncccc2-4)c1`, the TGI in the test with OVCAR-5 ovarian, in the test with SK-MEL-28 melanoma, with MDA-MB-231 breast, in the test on COLO 205 colon, in the test on K-562 leukemia and in the test on MDA-MB-435 was greater than 100 µM each time. The TGI in the test with NCI/ADR-RES ovarian is greater than 100 µM; in the test with SNB-75 CNS, 58.6 µM; in the test on TK-10 renal it was greater than 100 µM.

For `CNC(=O)C(C)Oc1ccc(OCC2CCCCC2)cc1` (configuration not stated), the TGI in the test with LOX IMVI melanoma, with SK-MEL-28 melanoma, in the test on UO-31 renal, in the test on MOLT-4 leukemia, with K-562 leukemia and in the test on SK-MEL-2 melanoma was greater than 100 µM each time. Moreover, the TGI in the test on SNB-75 CNS and in the test with TK-10 renal was greater than 100 µM each time.
